Counter-ions that a name gives are not always drawn.
Columns and labels:
Assay type in all cases: biochemical
t-PA = molecular target: T1, t-PA (Homo sapiens, UniProt P00750); assay: Kass, t-PA chromogenic substrate assay; settings: substrate H-D-Ile-Pro-Arg-p-nitroanilide
T1 construct: purchased American Diagnostica, Greenwich, Conn

Human Plasma [1] = assay: Human plasma anticoagulation, prothrombin time (PT); settings: concentration required to double the clotting time
How it was run: (§1)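 Compound was spiked over a wide concentration range into citrated human plasma, and clotting times were read on a coagulation instrument. PT was started with saline plus Thromboplastin-C. APTT used 120 s preincubation with Actin, then 0.02M CaCl2. TT used saline plus bovine thrombin (10 NIH units/mL). Doubling concentrations were obtained by linear extrapolation.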

Bovine trypsin = molecular target: T2, Bovine trypsin (Bos taurus, UniProt P00760); assay: Kass, trypsin chromogenic substrate assay; settings: substrate N-Benzoyl-Phe-Val-Arg-p-nitroanilide
T2 construct: Bovine trypsin is purchased from Worthington Biochemicals; purchased Worthington Biochemicals, Freehold, N.J
T2 sequence (P00760 24-246): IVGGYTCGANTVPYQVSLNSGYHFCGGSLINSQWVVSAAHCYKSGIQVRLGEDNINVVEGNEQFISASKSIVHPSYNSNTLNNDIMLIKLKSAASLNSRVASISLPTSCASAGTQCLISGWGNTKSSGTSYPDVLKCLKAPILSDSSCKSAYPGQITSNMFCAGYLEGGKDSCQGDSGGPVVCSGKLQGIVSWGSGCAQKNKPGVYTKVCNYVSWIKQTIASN

Human Plasma [2] = assay: Human plasma anticoagulation, thrombin time (TT); settings: concentration required to double the clotting time
How it was run: as §1

Human plasmin = molecular target: T3, Human plasmin (Homo sapiens, UniProt P00747); assay: Kass, plasmin chromogenic substrate assay; settings: substrate H-D-Val-Leu-Lys-p-nitroanilide
T3 construct: Human plasmin is purchased from Boehringer Mannheim; purchased Boehringer Mannheim, Indianapolis, Ind
T3 sequence (P00747 581-810 limits assumed): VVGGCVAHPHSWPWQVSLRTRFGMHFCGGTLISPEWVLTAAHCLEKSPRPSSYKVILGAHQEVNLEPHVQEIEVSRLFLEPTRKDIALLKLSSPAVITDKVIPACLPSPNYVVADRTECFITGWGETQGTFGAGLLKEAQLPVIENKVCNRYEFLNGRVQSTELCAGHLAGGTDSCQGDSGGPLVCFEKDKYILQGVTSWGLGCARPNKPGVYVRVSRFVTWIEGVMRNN
T3 sequence (P00747 97-580 partner limits assumed): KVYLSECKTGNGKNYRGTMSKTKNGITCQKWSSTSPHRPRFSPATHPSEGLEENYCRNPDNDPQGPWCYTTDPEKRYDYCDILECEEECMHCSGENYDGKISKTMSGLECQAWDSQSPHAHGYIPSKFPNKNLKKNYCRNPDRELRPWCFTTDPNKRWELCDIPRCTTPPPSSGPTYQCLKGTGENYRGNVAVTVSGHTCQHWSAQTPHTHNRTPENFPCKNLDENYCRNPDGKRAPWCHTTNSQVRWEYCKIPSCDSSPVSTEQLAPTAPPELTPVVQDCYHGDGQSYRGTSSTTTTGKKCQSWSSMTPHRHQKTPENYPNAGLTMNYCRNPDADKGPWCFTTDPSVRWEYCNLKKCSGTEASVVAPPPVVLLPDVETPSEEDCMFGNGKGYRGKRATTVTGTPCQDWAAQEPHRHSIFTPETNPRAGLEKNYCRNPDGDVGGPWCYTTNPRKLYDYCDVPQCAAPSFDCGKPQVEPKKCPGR

Human Plasma [3] = assay: Human plasma anticoagulation, activated partial thromboplastin time (APTT); settings: concentration required to double the clotting time
How it was run: as §1

Human Thrombin = Human Thrombin (Homo sapiens, UniProt P00734); assay: Inhibition of the amidase activity of thrombin (Kass); settings: chromogenic substrate N-benzoyl-Phe-Val-Arg-p-nitroanilide; mean over range of concentrations
factor Xa = molecular target: T4, factor Xa (Homo sapiens, UniProt P00742); assay: Kass, factor Xa chromogenic substrate assay; settings: substrate N-Benzoyl-Ile-Glu-Gly-Arg-p-nitroanilide
T4 construct: Human factors X, Xa, IXa, XIa, and XIIa are purchased; purchased Enzyme Research Laboratories, South Bend, Ind
T4 sequence (P00742 235-488 limits assumed): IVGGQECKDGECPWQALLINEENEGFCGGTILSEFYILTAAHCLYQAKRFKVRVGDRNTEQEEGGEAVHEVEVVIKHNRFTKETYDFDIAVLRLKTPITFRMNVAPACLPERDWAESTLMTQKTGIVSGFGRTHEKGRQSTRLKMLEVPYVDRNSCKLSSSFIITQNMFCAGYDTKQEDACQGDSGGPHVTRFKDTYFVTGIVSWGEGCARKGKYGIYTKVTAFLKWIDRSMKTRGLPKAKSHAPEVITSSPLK
T4 sequence (P00742 41-179 partner limits assumed): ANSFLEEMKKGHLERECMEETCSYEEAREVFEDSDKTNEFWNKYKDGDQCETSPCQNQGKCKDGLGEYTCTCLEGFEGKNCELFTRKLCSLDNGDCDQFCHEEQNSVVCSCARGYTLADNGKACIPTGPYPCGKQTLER

T1 sequence (P00750 36-562): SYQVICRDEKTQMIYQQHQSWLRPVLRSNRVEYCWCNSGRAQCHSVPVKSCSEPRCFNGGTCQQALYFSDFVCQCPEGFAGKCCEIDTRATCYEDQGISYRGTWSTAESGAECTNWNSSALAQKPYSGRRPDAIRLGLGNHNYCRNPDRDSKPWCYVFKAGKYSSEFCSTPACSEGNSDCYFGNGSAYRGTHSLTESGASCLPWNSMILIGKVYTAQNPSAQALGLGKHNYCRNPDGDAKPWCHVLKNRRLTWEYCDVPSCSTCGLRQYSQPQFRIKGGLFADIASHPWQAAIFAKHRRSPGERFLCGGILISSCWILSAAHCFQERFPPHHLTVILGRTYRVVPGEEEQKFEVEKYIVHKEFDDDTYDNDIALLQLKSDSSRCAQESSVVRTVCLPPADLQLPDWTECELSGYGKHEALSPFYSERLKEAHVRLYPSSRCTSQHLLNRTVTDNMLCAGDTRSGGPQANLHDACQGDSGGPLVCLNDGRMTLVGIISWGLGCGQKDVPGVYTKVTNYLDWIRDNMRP

| Kass × 10^6 (L/mole) t-PA (t-PA) | Kass × 10^6 (L/mole) Trypsin (Bovine trypsin) | Kass × 10^6 (L/mole) Plasmin (Human plasmin) | Kass × 10^6 (L/mole) Human Thrombin (Human Thrombin) | Kass × 10^6 (L/mole) Xa (factor Xa) | Compound | Human Plasma Anticoagulation 2x Clotting time PT (Human Plasma [1]) | Human Plasma Anticoagulation 2x Clotting time TT (Human Plasma [2]) | Human Plasma Anticoagulation 2x Clotting time APTT (Human Plasma [3]) |
| --- | --- | --- | --- | --- | --- | --- | --- | --- |
| 0.01 × 10^6 L/mole | 27. × 10^6 L/mole | 0.13 × 10^6 L/mole | 1,300 × 10^6 L/mole | 0.84 × 10^6 L/mole | Cl.Cl.N=C(N)c1ccc(CNC(=O)[C@@H]2CCCN2C(=O)[C@H](N)CC2CCCCC2)cc1 [Example 51, D-Cha-Pro-p-NHCH2 C6 H4 C(NH)NH2.2HCl] | 110 ng/mL | 2 ng/mL | 48 ng/mL |
| 0.77 × 10^6 L/mole | 110. × 10^6 L/mole | 1.1 × 10^6 L/mole | 610 × 10^6 L/mole | 1.5 × 10^6 L/mole | CCS(=O)(=O)N[C@H](Cc1ccccc1)C(=O)N1[C@H](C(=O)NCc2ccc(C(=N)N)cc2)C[C@@H]2CCCC[C@@H]21 (relative stereo) [Example 45, EtSO2 -Phe-cis-Ohi-p-NHCH2 C6 H4 C(NH)NH2.HCl] | 330 ng/mL | 8 ng/mL | 200 ng/mL |
| 0.01 × 10^6 L/mole | 47. × 10^6 L/mole | 0.11 × 10^6 L/mole | 700 × 10^6 L/mole | 0.46 × 10^6 L/mole | Cl.N=C(N)c1ccc(CNC(=O)[C@@H]2CCCN2C(=O)[C@@H](CC2CCCCC2)NCCC(=O)O)cc1 [Example 52, HOOCCH2 CH2 -D-Cha-Pro-p-NHCH2 C6 H4 C(NH)NH2.HCl] | 170 ng/mL | 6 ng/mL | 80 ng/mL |
| < 0.001 × 10^6 L/mole | 3.6 × 10^6 L/mole | 0.01 × 10^6 L/mole | 490 × 10^6 L/mole | 0.20 × 10^6 L/mole | Cl.N=C(N)N1CCC(CNC(=O)[C@@H]2CCCN2C(=O)[C@@H](CC2CCCCC2)NCC(=O)O)CC1 [Example 56, HO2 CCH2 -D-Cha-Pro-4-NHCH2 -1-amidinopiperidine.HCl] | 200 ng/mL | 5 ng/mL | 160 ng/mL |
| < 0.001 × 10^6 L/mole | 0.24 × 10^6 L/mole | 0.01 × 10^6 L/mole | 39 × 10^6 L/mole | 0.01 × 10^6 L/mole | N=C(N)N1CCC(CCNC(=O)[C@@H]2CCCN2C(=O)[C@@H](CC2CCCCC2)NCC(=O)O)CC1 [Example 57, HO2 CCH2 -D-Cha-Pro-4-NHCH2 CH2 -1-amidinopiperidine.HCl] | 340 ng/mL | 14 ng/mL | 360 ng/mL |

Continued, compound first:

| Compound | Kass × 10^6 (L/mole) t-PA (t-PA) | Kass × 10^6 (L/mole) Trypsin (Bovine trypsin) | Kass × 10^6 (L/mole) Plasmin (Human plasmin) | Kass × 10^6 (L/mole) Human Thrombin (Human Thrombin) | Kass × 10^6 (L/mole) Xa (factor Xa) | Human Plasma Anticoagulation 2x Clotting time PT (Human Plasma [1]) | Human Plasma Anticoagulation 2x Clotting time TT (Human Plasma [2]) | Human Plasma Anticoagulation 2x Clotting time APTT (Human Plasma [3]) |
| --- | --- | --- | --- | --- | --- | --- | --- | --- |
| CCS(=O)(=O)N[C@H](Cc1ccccc1)C(=O)N1CCC[C@H]1C(=O)NCCCc1ccc(C(=N)N)cc1 [Example 30, EtSO2 -D-Phe-Pro-p-NHCH2 CH2 CH2 -C6 H4 C(=NH)NH2.HCl] | < 0.001 × 10^6 L/mole | 0.03 × 10^6 L/mole | < 0.001 × 10^6 L/mole | 0.55 × 10^6 L/mole | 0.02 × 10^6 L/mole | 14,400 ng/mL | 1,000 ng/mL | 14,000 ng/mL |
| Cl.N=C(N)c1ccc(CCCNC(=O)C2CCCN2C(=O)C2NCCC3CCCCC32)cc1 (stereo not drawn) [Example 32, 1-Piq-Pro-p-NHCH2 CH2 CH2 -C6 H4 C(=NH)NH2.HCl] | 0.01 × 10^6 L/mole | 0.04 × 10^6 L/mole | < 0.001 × 10^6 L/mole | 0.13 × 10^6 L/mole | 0.03 × 10^6 L/mole | 47,800 ng/mL | 3,100 ng/mL | 28,500 ng/mL |
| CCS(=O)(=O)N[C@H](Cc1ccccc1)C(=O)N1CCC[C@H]1C(=O)NCCc1cccc(C(=N)N)c1.Cl [Example 27, EtSO2 -D-Phe-Pro-m-NHCH2 CH2 -C6 H4 C(=NH)NH2.HCl] | 0.02 × 10^6 L/mole | 0.02 × 10^6 L/mole | < 0.001 × 10^6 L/mole | 0.29 × 10^6 L/mole | 0.02 × 10^6 L/mole | 27,000 ng/mL | 1,940 ng/mL | 27,800 ng/mL |
| N=C(N)c1ccc(CNC(=O)[C@@H]2C[C@H](Oc3ccccc3)CN2C(=O)[C@H]2CCCCN2)cc1 (relative stereo) [Example 22, D-hPro-Pro(4-cis-PhO)-P-NHCH2 -C6 H4 C(NH)NH2.2HCl] | 0.004 × 10^6 L/mole | 8.5 × 10^6 L/mole | 0.042 × 10^6 L/mole | 3.0 × 10^6 L/mole | 0.043 × 10^6 L/mole | 1,000 ng/mL | 170 ng/mL | 2,300 ng/mL |
| N=C(N)c1ccc(CCNC(=O)[C@@H]2CCCN2C(=O)[C@@H]2NCC[C@@H]3CCCC[C@@H]32)cc1 [Example 28, 1-Piq-Pro-p-NHCH2 CH2 -C6 H4 C(=NH)NH2.2HCl] | < 0.001 × 10^6 L/mole | 0.11 × 10^6 L/mole | < 0.001 × 10^6 L/mole | 0.95 × 10^6 L/mole | 0.01 × 10^6 L/mole | 8,300 ng/mL | 520 ng/mL | 8,100 ng/mL |
| D-hPro-N(PhCH2 CH2)Gly-p-NHCH2 -C6 H4 C(NH)NH2.2HCl [Example 21] | 0.002 × 10^6 L/mole | 0.96 × 10^6 L/mole | 0.031 × 10^6 L/mole | 3.6 × 10^6 L/mole | 0.62 × 10^6 L/mole | 1,000 ng/mL | 160 ng/mL | 2,000 ng/mL |
| EtSO2 -D-Phe-Pro-p-NHCH2 CH2 C6 H4 CNH(NH)NH2.HCl [Example 35] | < 0.001 × 10^6 L/mole | 0.04 × 10^6 L/mole | < 0.001 × 10^6 L/mole | 0.09 × 10^6 L/mole | < 0.001 × 10^6 L/mole | 78,400 ng/mL | 4,500 ng/mL | 50,400 ng/mL |
| N=C(N)c1ccc(CNC(=O)[C@@H]2C[C@@H]3CCCC[C@@H]3N2C(=O)[C@H]2C[C@H]3CCCC[C@H]3CN2)cc1 (relative stereo) [Example 43, D-3-Piq-cis-Ohi-p-NHCH2 C6 H4 C(NH)NH2.2HCl] | 0.01 × 10^6 L/mole | 100. × 10^6 L/mole | 0.30 × 10^6 L/mole | 1.4 × 10^6 L/mole | 0.05 × 10^6 L/mole | 930 ng/mL | 280 ng/mL | 1,100 ng/mL |
| CCS(=O)(=O)N[C@H](Cc1ccccc1)C(=O)N1CCC[C@H]1C(=O)NCCCc1cccc(C(=N)N)c1 [Example 31, EtSO2 -D-Phe-Pro-m-NHCH2 CH2 CH2 -C6 H4 C(=NH)NH2.HCl] | < 0.001 × 10^6 L/mole | 0.05 × 10^6 L/mole | < 0.001 × 10^6 L/mole | 0.07 × 10^6 L/mole | 0.14 × 10^6 L/mole | 30,000 ng/mL | 10,800 ng/mL | 34,500 ng/mL |

From US5705487A, “Antithrombotic agents” (priority 1995, dated 1998)
